Numbered stars: 1 amine (or outer) side, 2 acyl side, 3 side chain; on linkers, the order of the positions; unused ones are H or OH. Square brackets hold non-standard residues; d marks the D form. Peptide text beside a SMILES is read from it. ξ: configuration not given here. X1 = O=C([C@H]1CCC[C@@H]1N[*:1])[*:2]; X2 = O=C([C@H]1CNC[C@@H]1N[*:1])[*:2]; β3hN = NC(=O)C[C@H](N)CC(=O)O; ξβ3hR = N=C(N)NCCCC(N)CC(=O)O; β3hV = CC(C)[C@H](N)CC(=O)O; ξβ3hL = CC(C)CC(N)CC(=O)O; ξβ3hK = NCCCCC(N)CC(=O)O; ξβ3hT = CC(O)C(N)CC(=O)O; ξβ3hV = CC(C)C(N)CC(=O)O; ξβ3hS = NC(CO)CC(=O)O; Aib = CC(C)(N)C(=O)O; βAla = NCCC(=O)O
Legend:
[1] = target: T1, Vasoactive intestinal polypeptide receptor 2 (Homo sapiens, UniProt P41587); assay: Agonist activity at human VIPR2 expressed in CHOK1 cells assessed as intracellular cAMP accumulation after 60 mins by PathHunter assay; format: functional, cell-based
T1 sequence (P41587 whole entry): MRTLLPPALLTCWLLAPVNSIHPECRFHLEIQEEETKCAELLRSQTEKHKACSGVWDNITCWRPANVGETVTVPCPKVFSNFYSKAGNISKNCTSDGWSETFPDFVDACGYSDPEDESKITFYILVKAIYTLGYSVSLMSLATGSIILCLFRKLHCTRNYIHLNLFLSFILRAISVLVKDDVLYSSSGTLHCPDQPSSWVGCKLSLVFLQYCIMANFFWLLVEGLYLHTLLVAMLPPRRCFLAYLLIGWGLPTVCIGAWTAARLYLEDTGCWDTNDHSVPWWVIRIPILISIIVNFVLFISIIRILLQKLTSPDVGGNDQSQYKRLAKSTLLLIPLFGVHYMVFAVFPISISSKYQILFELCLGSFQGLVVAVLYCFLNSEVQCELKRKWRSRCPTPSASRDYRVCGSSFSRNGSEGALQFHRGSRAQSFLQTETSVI

[2] = target: T2, Vasoactive intestinal polypeptide receptor 1 (Homo sapiens, UniProt P32241); assay: Agonist activity at human VIPR1 expressed in CHOK1 cells assessed as intracellular cAMP accumulation after 60 mins by PathHunter assay; format: functional, cell-based
T2 sequence (P32241 whole entry): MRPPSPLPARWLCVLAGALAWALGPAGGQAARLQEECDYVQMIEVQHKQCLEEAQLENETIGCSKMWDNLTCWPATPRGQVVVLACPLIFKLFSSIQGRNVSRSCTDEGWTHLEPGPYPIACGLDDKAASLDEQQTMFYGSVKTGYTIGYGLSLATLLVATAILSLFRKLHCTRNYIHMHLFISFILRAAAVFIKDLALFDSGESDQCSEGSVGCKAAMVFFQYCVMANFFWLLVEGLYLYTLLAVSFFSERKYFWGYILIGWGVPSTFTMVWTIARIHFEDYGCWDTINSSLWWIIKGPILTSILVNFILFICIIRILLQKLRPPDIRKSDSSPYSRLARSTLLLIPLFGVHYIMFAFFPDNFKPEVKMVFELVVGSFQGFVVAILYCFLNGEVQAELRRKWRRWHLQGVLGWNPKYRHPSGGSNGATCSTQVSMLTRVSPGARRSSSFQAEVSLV

Row | SMILES | EC50 [1] | EC50 [2]
1 | CC[C@H](C)[C@H](NC(=O)[C@H](C)NC(=O)[C@H](CC(N)=O)NC(=O)CC(CC(C)C)NC(=O)[C@H](Cc1ccc(O)cc1)NC(=O)[C@H](CCCCN)NC(=O)[C@H](CCCCN)NC(=O)CC(NC(=O)[C@H](C)NC(=O)[C@H](CC(C)C)NC(=O)[C@H](CCC(N)=O)NC(=O)CC(CCCCN)NC(=O)[C@H](CCCNC(=N)N)NC(=O)[C@H](CC(C)C)NC(=O)[C@H](CCCNC(=N)N)NC(=O)CC(NC(=O)[C@H](Cc1ccc(O)cc1)NC(=O)CC(CC(N)=O)NC(=O)[C@H](CC(=O)O)NC(=O)[C@@H](NC(=O)[C@H](Cc1ccccc1)NC(=O)CC(NC(=O)[C@H](C)NC(=O)[C@H](CC(=O)O)NC(=O)[C@@H](Cc1ccccc1)NC(=O)[C@@H](N)Cc1cnc[nH]1)C(C)C)[C@@H](C)O)C(C)O)C(C)C)C(=O)NC(CC(=O)N[C@@H](CC(N)=O)C(=O)O)CC(C)C (stereo partly specified) | 989 nM | > 1000 nM
2 | CC(=O)N[C@@H](Cc1cnc[nH]1)C(=O)NC(C)(C)C(=O)N[C@@H](CC(=O)O)C(=O)N[C@@H](C)C(=O)N[C@H](C(=O)N[C@@H](Cc1ccccc1)C(=O)N[C@H](C(=O)N[C@@H](CCC(=O)O)C(=O)N[C@@H](CC(N)=O)C(=O)N[C@@H](Cc1ccc(O)cc1)C(=O)N[C@H](C(=O)N[C@@H](CCCCN)C(=O)N[C@@H](CC(C)C)C(=O)N[C@@H](CCCNC(=N)N)C(=O)N[C@@H](CCCCN)C(=O)N[C@@H](CCC(N)=O)C(=O)N[C@@H](CC(C)C)C(=O)N[C@@H](C)C(=O)N[C@@H](C)C(=O)N[C@H]1CNC[C@@H]1C(=O)N[C@@H](CCCCN)C(=O)N[C@@H](Cc1ccc(O)cc1)C(=O)N[C@H]1CCC[C@@H]1C(=O)N[C@@H](CC(N)=O)C(=O)N[C@@H](CC(=O)O)C(=O)N[C@@H](CC(C)C)C(=O)NC(CCCCN)CC(=O)N[C@@H](CCCCN)C(=O)NCC(=O)NCCC(=O)N[C@H](C(=O)O)[C@@H](C)O)[C@@H](C)O)[C@@H](C)O)C(C)C (stereo partly drawn) (Ac-H[Aib]DAVFTENYTKLRKQLAA[X2]KY[X1]NDL[ξβ3hK]KG[βAla]T-OH) | 0.529 nM | 516 nM
3 | CC(=O)N[C@@H](Cc1cnc[nH]1)C(=O)NC(C)(C)C(=O)N[C@@H](CC(=O)O)C(=O)N[C@@H](C)C(=O)N[C@H](CC(=O)N[C@@H](Cc1ccccc1)C(=O)N[C@H](C(=O)N[C@@H](CCC(=O)O)C(=O)N[C@@H](CC(N)=O)C(=O)N[C@@H](Cc1ccc(O)cc1)C(=O)N[C@H](C(=O)N[C@@H](CCCCN)C(=O)N[C@@H](CC(C)C)C(=O)N[C@@H](CCCNC(=N)N)C(=O)N[C@@H](CCCCN)C(=O)N[C@@H](CCC(N)=O)C(=O)N[C@@H](CC(C)C)C(=O)N[C@@H](C)C(=O)N[C@@H](C)C(=O)N[C@H]1CNC[C@@H]1C(=O)N[C@@H](CCCCN)C(=O)N[C@@H](Cc1ccc(O)cc1)C(=O)N[C@H]1CCC[C@@H]1C(=O)N[C@@H](CC(N)=O)C(=O)N[C@@H](CC(=O)O)C(=O)N[C@@H](CC(C)C)C(=O)NC(CCCCN)CC(=O)N[C@@H](CCCCN)C(=O)NCC(=O)NCCC(=O)N[C@H](C(=O)O)[C@@H](C)O)[C@@H](C)O)[C@@H](C)O)C(C)C (stereo partly drawn) (Ac-H[Aib]DA[β3hV]FTENYTKLRKQLAA[X2]KY[X1]NDL[ξβ3hK]KG[βAla]T-OH) | 0.816 nM | > 1000 nM
4 | CC[C@H](C)[C@H](NC(=O)[C@H](C)NC(=O)[C@H](CC(N)=O)NC(=O)CC(CC(C)C)NC(=O)[C@H](Cc1ccc(O)cc1)NC(=O)[C@H](CCCCN)NC(=O)[C@H](CCCCN)NC(=O)CC(NC(=O)[C@H](C)NC(=O)[C@H](CC(C)C)NC(=O)[C@H](CCC(N)=O)NC(=O)CC(CCCCN)NC(=O)[C@H](CCCNC(=N)N)NC(=O)[C@H](CC(C)C)NC(=O)[C@H](CCCNC(=N)N)NC(=O)CC(NC(=O)[C@H](Cc1ccc(O)cc1)NC(=O)[C@H](CC(N)=O)NC(=O)[C@H](CC(=O)O)NC(=O)[C@@H](NC(=O)[C@H](Cc1ccccc1)NC(=O)CC(NC(=O)[C@H](C)NC(=O)[C@H](CC(=O)O)NC(=O)CC(CO)NC(=O)[C@@H](N)Cc1cnc[nH]1)C(C)C)[C@@H](C)O)C(C)O)C(C)C)C(=O)NC(CC(=O)N[C@@H](CC(N)=O)C(=O)O)CC(C)C (stereo partly drawn) (H-H[ξβ3hS]DA[ξβ3hV]FTDNY[ξβ3hT]RLR[ξβ3hK]QLA[ξβ3hV]KKY[ξβ3hL]NAI[ξβ3hL]N-OH) | 716 nM | 64.4 nM
5 | CC(=O)N[C@@H](Cc1cnc[nH]1)C(=O)N[C@@H](CO)C(=O)N[C@@H](CC(=O)O)C(=O)N[C@@H](C)C(=O)N[C@H](C(=O)N[C@@H](Cc1ccccc1)C(=O)N[C@H](C(=O)N[C@@H](CCC(=O)O)C(=O)N[C@@H](CC(N)=O)C(=O)N[C@@H](Cc1ccc(O)cc1)C(=O)N[C@H](C(=O)N[C@@H](CCCCN)C(=O)N[C@@H](CC(C)C)C(=O)N[C@@H](CCCNC(=N)N)C(=O)N[C@@H](CCCCN)C(=O)N[C@@H](CCC(N)=O)C(=O)N[C@H]1CCC[C@@H]1C(=O)N[C@@H](C)C(=O)N[C@@H](C)C(=O)N[C@H]1CNC[C@@H]1C(=O)N[C@@H](CCCCN)C(=O)N[C@@H](Cc1ccc(O)cc1)C(=O)N[C@@H](CC(C)C)C(=O)N[C@H]1CCC[C@@H]1C(=O)N[C@@H](CC(=O)O)C(=O)N[C@@H](CC(C)C)C(=O)NC(CCCCN)CC(=O)N[C@@H](CCCCN)C(=O)NCC(=O)NCC(=O)N[C@H](C(=O)O)[C@@H](C)O)[C@@H](C)O)[C@@H](C)O)C(C)C (stereo partly drawn) (Ac-HSDAVFTENYTKLRKQ[X1]AA[X2]KYL[X1]DL[ξβ3hK]KGGT-OH) | 0.18 nM | 218 nM
6 | CC[C@H](C)[C@H](NC(=O)[C@H](C)NC(=O)[C@H](CC(N)=O)NC(=O)CC(CC(C)C)NC(=O)[C@H](Cc1ccc(O)cc1)NC(=O)[C@H](CCCCN)NC(=O)[C@H](CCCCN)NC(=O)CC(NC(=O)[C@H](C)NC(=O)[C@H](CC(C)C)NC(=O)[C@H](CCC(N)=O)NC(=O)CC(CCCCN)NC(=O)[C@H](CCCNC(=N)N)NC(=O)[C@H](CC(C)C)NC(=O)[C@H](CCCNC(=N)N)NC(=O)CC(NC(=O)[C@H](Cc1ccc(O)cc1)NC(=O)[C@H](CC(N)=O)NC(=O)[C@H](CC(=O)O)NC(=O)[C@@H](NC(=O)[C@H](Cc1ccccc1)NC(=O)[C@H]1CCC[C@@H]1NC(=O)[C@H](C)NC(=O)[C@H](CC(=O)O)NC(=O)[C@H]1CCC[C@@H]1NC(=O)[C@@H](N)Cc1cnc[nH]1)[C@@H](C)O)C(C)O)C(C)C)C(=O)NC(CC(=O)N[C@@H](CC(N)=O)C(=O)O)CC(C)C (stereo partly drawn) (H-H[X1]DA[X1]FTDNY[ξβ3hT]RLR[ξβ3hK]QLA[ξβ3hV]KKY[ξβ3hL]NAI[ξβ3hL]N-OH) | 79.6 nM | 0.358 nM
7 | CC(=O)N[C@@H](Cc1cnc[nH]1)C(=O)N[C@H]1CCC[C@@H]1C(=O)N[C@@H](CC(=O)O)C(=O)N[C@@H](C)C(=O)NC(CC(=O)N[C@@H](Cc1ccccc1)C(=O)N[C@H](C(=O)N[C@@H](CCC(=O)O)C(=O)N[C@@H](CC(N)=O)C(=O)N[C@@H](Cc1ccc(O)cc1)C(=O)N[C@H](C(=O)N[C@@H](CCCCN)C(=O)N[C@@H](CC(C)C)C(=O)NC(CCCNC(=N)N)CC(=O)N[C@@H](CCCCN)C(=O)N[C@@H](CCC(N)=O)C(=O)N[C@@H](CC(C)C)C(=O)N[C@@H](C)C(=O)N[C@@H](C)C(=O)N[C@H]1CNC[C@@H]1C(=O)N[C@@H](CCCCN)C(=O)N[C@@H](Cc1ccc(O)cc1)C(=O)N[C@H]1CCC[C@@H]1C(=O)N[C@@H](CC(N)=O)C(=O)N[C@@H](CC(=O)O)C(=O)N[C@@H](CC(C)C)C(=O)NC(CCCCN)CC(=O)N[C@@H](CCCCN)C(=O)NCC(=O)NCCC(=O)N[C@H](C(=O)O)[C@@H](C)O)[C@@H](C)O)[C@@H](C)O)C(C)C (stereo partly drawn) (Ac-H[X1]DA[ξβ3hV]FTENYTKL[ξβ3hR]KQLAA[X2]KY[X1]NDL[ξβ3hK]KG[βAla]T-OH) | 1.37 nM | > 1000 nM
8 | CC(=O)N[C@@H](Cc1cnc[nH]1)C(=O)N[C@H]1CCC[C@@H]1C(=O)N[C@@H](CC(=O)O)C(=O)N[C@@H](C)C(=O)NC(CC(=O)N[C@@H](Cc1ccccc1)C(=O)N[C@H](C(=O)N[C@@H](CCC(=O)O)C(=O)N[C@@H](CC(N)=O)CC(=O)N[C@@H](Cc1ccc(O)cc1)C(=O)N[C@H](C(=O)N[C@@H](CCCCN)C(=O)N[C@@H](CC(C)C)C(=O)N[C@@H](CCCNC(=N)N)C(=O)N[C@@H](CCCCN)C(=O)N[C@@H](CCC(N)=O)C(=O)NC(CC(=O)N[C@@H](C)C(=O)N[C@@H](C)C(=O)N[C@H]1CNC[C@@H]1C(=O)N[C@@H](CCCCN)C(=O)N[C@@H](Cc1ccc(O)cc1)C(=O)N[C@H]1CCC[C@@H]1C(=O)N[C@@H](CC(N)=O)C(=O)N[C@@H](CC(=O)O)C(=O)N[C@@H](CC(C)C)C(=O)NC(CCCCN)CC(=O)N[C@@H](CCCCN)C(=O)NCC(=O)NCCC(=O)N[C@H](C(=O)O)[C@@H](C)O)CC(C)C)[C@@H](C)O)[C@@H](C)O)C(C)C (stereo partly drawn) (Ac-H[X1]DA[ξβ3hV]FTE[β3hN]YTKLRKQ[ξβ3hL]AA[X2]KY[X1]NDL[ξβ3hK]KG[βAla]T-OH) | 1.26 nM | > 1000 nM

Reference: ChEMBL document CHEMBL4257221, “Peptides comprising non-natural amino acids and methods of making and using the same” (2016)
